Assay results reported in patent publication US9012422B2, “Method of treating acute myelogenous leukemia” (Wake Forest University Health Sciences, priority 2011, dated 2015).
Read-outs that look alike come from different tables or passages of the source.

Assays:
[1] = system: HL60 cells; assay: Cell Titer-Glo viability (cytotoxicity) assay, HL60; type: cell-based, human; settings: 72 hours exposure
Description: (§1) We chose to use doxorubicin as the anthracycline as it is the best tolerated anthracycline in C57/Bl6 mice^11 and would allow for comparisons between in vivo and in vitro studies.

[2] = system: Jurkat cells; assay: Cell Titer-Glo viability (cytotoxicity) assay, Jurkat; type: cell-based, human; settings: 72 hours exposure
Description: as §1

[3] = system: THP-1 cells; assay: Cell Titer-Glo viability (cytotoxicity) assay, THP-1; type: cell-based, human; settings: 72 hours exposure
Description: as §1

[4] = system: K562 cells; assay: Cell Titer-Glo viability (cytotoxicity) assay, K562; type: cell-based, human; settings: 72 hours exposure
Description: as §1

[5] = system: KG1a cells; assay: Cell Titer-Glo viability (cytotoxicity) assay, KG1a; type: cell-based, human; settings: 72 hours exposure
Description: as §1

[6] = system: OCI-AML3 cells; assay: Cell Titer-Glo viability (cytotoxicity) assay, OCI-AML3; type: cell-based, human; settings: 72 hours exposure
Description: as §1

[7] = system: murine AML cell lines; settings: 24 hours
Method: FIG. 11. […] (A) Flow cytometry results of Annexin V assays. The indicated MLL-ENL driven leukemia cells were treated with drug for 24 hours analyzed by flow cytometry, as in FIG. 5. (B) MLL-ENL and neuroblastoma RAS viral oncogene homolog (NRAS) containing AML cells were exposed to the indicated drug for 24 hours and analyzed as in (A).

[8] = system: MR2 cell line (MLL-ENL and NRasG12D) leukemia in C57/Bl6 mice
Description: FIG. 12. […] C57/Bl6 mice were sublethally irradiated to 4.5 Gy and injected with an MLL-ENL and NRAS syngeneic leukemia. […] P value was obtained by log rank test. […] P value was obtained by log rank test.
(§2) The Wake Forest University Institutional Animal Care and Use Committee approved all mouse experiments. Luciferase-tagged leukemia cells were transplanted into 6- to 8-wk-old sublethally irradiated recipient mice (4.5 Gy) by tail-vein injection of 1×10^6 viable cells. Mice were monitored by bioluminescent imaging on day 7. Imaging was performed using an IVIS100 imaging system (Caliper LifeSciences, Hopkinton, Mass.). Mice were injected with 150 mg/kg D-Luciferin (Gold Biotechnology, St. Louis, Mo.), anesthetized with isoflurane, and imaged for 2 min. Chemotherapy was initiated upon detection of clear signals. […] Control animals were injected with PBS. Repeat luciferase imaging was performed on day 6 of treatment.
(§3) Recent studies have shown that the bone marrow microenvironment can have a profound effect on chemotherapy response in AML^24. Additionally, the immune system can affect the degree of response to a given therapy in vivo^25. […] This cell line express MLL-ENL and the mutated oncogene, NRas^G12D in conjunction with a luciferase reporter. […] This cell line expresses the FLT3 receptor with an internal tandem duplication (FLT3 ITD) in place of NRas^G12D. […] (300 mg/kg), 5-FU (121 mg/kg) or Ara-C (125 mg/kg) plus doxorubicin (3.75 mg/kg) on days 1, 3, 5, and 7 (FIG. 1A).

[9] = system: MFL2 cell line (MLL-ENL and FLT3 ITD) leukemia in C57/Bl6 mice; settings: for survival compared to controls: 5-FU 121 mg/kg
Description: FIG. 6. […] A) Schema of treatment trial. C57/Bl6 mice were sublethally irradiated to 4.5 Gy and injected with an MLL-ENL and Fms-like tyrosine kinase 3 internal tandem duplication (FLT3-ITD) syngeneic leukemia. […] (B) Bioluminescent image of mice on day 6 following treatment. (C) Kaplan-Meier curves for animals treated with Fd, 5-FU or AD as above.
as §2, §3

[10] = system: MFL2 cells (MLL-ENL + Flt3 ITD); settings: read-out: IC50 MFL2
Method: (§8) Cells were grown at 37° C. with 5% CO2. Viability assays were done using the Cell Titer-Glo assay (Promega, Madison, Wis.) according to the manufacturer's protocol. All murine cells were derived from fetal liver cells infected with MLL-ENL alone or with a mutation of glycine at amino acid 12 to aspartate of NRAS (NRAS^G12D) or FLT3-ITD expressing vectors^10. Murine cells were maintained in stem cell media (40% DMEM, 40% IMDM, 20% FBS, supplemented with murine SCF to 10 ng/ml, murine IL6 to 2 ng/ml, and murine IL3 to 0.4 ng/ml).

[11] = system: MR2 cells (MLL-ENL + NRasG12D); settings: read-out: IC50 MR2
Method: as §8

[12] = system: M1 cells (MLL-ENL alone); settings: read-out: IC50 M1
Method: as §8

[13] = system: murine AML cells expressing the p53 shRNA; settings: 48 hours
Method: (B) Flow cytometry of Annexin V assay. Cells expressing the p53 short hairpin RNA (shRNA) were exposed to the indicated drug for 48 hours and then labeled with Annexin V and propidium iodide (PI).
(§9) Cells were seeded in 6-well plates at 25,000 cells/ml in 3 mls, grown for 2 days and treated with the indicated drug for 16, 24, 36, or 48 hours. After centrifugation and washing in cold PBS cells were stained with PI (Sigma Aldrich, St. Louis, Mo.) and APC-conjugated Annexin V in a binding buffer (0.1 M Hepes (pH 7.4), 1.4 M NaCl, and 25 mM CaCl2 solution) (BD Pharmingen, San Jose, Calif.) according to the manufacturer's protocol. Flow cytometric analysis was conducted on a BD FACS Cantoll cytometer with the BD FACSDiva software (BD Biosciences, San Jose, Calif.).

[14] = system: human LSCs (K562 and HL60 cells, three primary patient samples); settings: 24 hours drug, colonies read on or after day 7
Method: (A) Colony formation assays. Primary patient samples or cell lines were incubated with the indicated drug for 24 hours and placed in methylcellulose media. Plates were read on or after day 7. All concentrations were done in triplicate. Primary AML is the combined results of three independent primary patient samples. Colony numbers are normalized to controls and error bars represent the standard error.

[15] = system: MLL-ENL driven murine AML cells
Method: FIG. 4. […] (A) EdU incorporation assays. MLL-ENL driven murine AML cells were incubated with the indicated drug for 8 hours and subjected to a 5-ethynl-2′ deoxyuridine (EdU) incorporation assay. S phase cells were gated as shown. Percentages shown are for cells in S phase. (B) EdU incorporation assay as in (A). Cells were infected with either a p53 targeting shRNA or a control vector and exposed to the indicated drug for 8 hours.

[16] = system: K562 cells; settings: 24 hours
Method: (A) Immuno-fluorescence for gamma histone H2AX (γH2AX) foci. K562 cells were treated with the indicated drug for 24 hours and then assayed for the presence of γH2AX foci. Secondary antibody was conjugated with Alexa Fluor 594 and Images were captured with an Olympus IX70 inverted fluorescent microscope equipped with a Retiga 2000R digital color camera and using an LPIanFI 20×/0.40 objective. Images were analyzed with Image Pro Plus 5.1 software.
For immunofluorescence studies of phosphorylated γH2AX, cells were fixed with 4% NBF, permeabilized with PBS containing 0.2% Triton-X 100, and probed with anti-phosphoH2AX (#2577, 1:100; Cell Signalling Technologies) followed by donkey anti-rabbit Alexa Fluor 594 conjugated antibody (1:500, A-21207; Invitrogen) and visualized via fluorescence microscopy.

[17] = system: THP-1 and HL60 cells; settings: 48 hours
Method: (B) Flow cytometry of Annexin V assay. THP-1 or HL60 cells were treated with the indicated drug for 48 hours and then labeled with Annexin V and propidium iodide (PI) and analyzed by flow cytometry.
as §9

[18] = target: topoisomerase I cleavage complexes (Top1CC) in THP-1, Jurkat and HL60 cells (Homo sapiens, UniProt P11387); assay: ICE bioassay / Top1 cleavage complex detection; settings: 100 nM, 24 or 48 hours
topoisomerase I cleavage complexes (Top1CC) in THP-1, Jurkat and HL60 cells, sequence (P11387 2-765 limits assumed, one chain of several): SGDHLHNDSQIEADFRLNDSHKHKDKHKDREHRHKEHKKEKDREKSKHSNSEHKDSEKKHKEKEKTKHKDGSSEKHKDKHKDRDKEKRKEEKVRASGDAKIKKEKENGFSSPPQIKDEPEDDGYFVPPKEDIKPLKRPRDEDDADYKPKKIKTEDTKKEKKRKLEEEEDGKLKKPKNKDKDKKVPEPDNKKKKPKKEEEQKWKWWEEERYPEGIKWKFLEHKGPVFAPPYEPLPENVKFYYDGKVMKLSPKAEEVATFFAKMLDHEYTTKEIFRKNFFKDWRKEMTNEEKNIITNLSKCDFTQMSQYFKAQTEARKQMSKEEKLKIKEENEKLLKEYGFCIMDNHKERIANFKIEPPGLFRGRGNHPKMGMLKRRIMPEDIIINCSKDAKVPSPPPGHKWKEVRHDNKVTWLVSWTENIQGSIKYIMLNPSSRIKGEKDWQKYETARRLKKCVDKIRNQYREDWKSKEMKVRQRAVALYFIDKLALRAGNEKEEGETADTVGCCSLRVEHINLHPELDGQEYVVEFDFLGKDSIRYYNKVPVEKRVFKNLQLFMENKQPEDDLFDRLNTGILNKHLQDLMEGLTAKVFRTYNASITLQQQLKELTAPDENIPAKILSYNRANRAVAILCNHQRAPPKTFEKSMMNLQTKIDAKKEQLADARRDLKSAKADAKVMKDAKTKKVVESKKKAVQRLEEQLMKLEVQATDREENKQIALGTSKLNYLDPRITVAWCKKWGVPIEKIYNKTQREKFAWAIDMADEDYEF
Method: (B) ICE bioassay for Top1 cleavage complexes. […] Cells were lysed and subjected to ICE bioassay (see methods), and DNA-containing fractions were blotted for Topo I. (C) Results of TS and Top1 Western blots.
Cells were plated at 1.5×10^6 cells in 100 mm^2 plates and grown in RPMI 1640 medium with 20% FBS. […] Cells were lysed in 2 ml of 1% sarkosyl in 1×TE pH 7.5 and frozen at −20° C. Samples were homogenized approximately 25 times. Addition of 1 ml of sarkosyl was used to wash the homogenizer. CsCl gradients were made as in^9. The samples were overlaid and ultracentrifuged in a SW41T rotor. Centrifugation was at 36K for 20-22 hours at 20° C. 500 ml fractions were collected. Fractions 6 through 11 were used for analysis. 200 ul of each fraction and an equal volume of 25 mM NaPO4 buffer (pH 6.5) were loaded onto a nitrocellulose membrane using a Schleicher and Schuell Minifold II slot blotter. The membrane was blocked with 5% milk in TBST. Primary antibody was added at 1:500 dilution, overnight at 4° C. Secondary antibody was used in the same manner. ECL Lightning Plus (Perkin Elmer) was used for detection of the TOP1 cleavage complex.

[19] = system: MLL-ENL- and FLT3 ITD-expressing cell line with p53-targeting shRNA; assay: Cytotoxicity assay of murine AML cells with p53 knockdown; settings: p53 shRNA vs control vector, 72 hours
Method: (A) Cytotoxicity assays of murine AML cells that knockdown p53. Cells were exposed to the indicated drugs for 72 hours and then assessed for viability. Viability is shown as percentage of control; error bars represent the standard error.
Viability assays were done using the Cell Titer-Glo assay (Promega, Madison, Wis.) according to the manufacturer's protocol. All murine cells were derived from fetal liver cells infected with MLL-ENL alone or with a mutation of glycine at amino acid 12 to aspartate of NRAS (NRAS^G12D) or FLT3-ITD expressing vectors^10. Murine cells were maintained in stem cell media (40% DMEM, 40% IMDM, 20% FBS, supplemented with murine SCF to 10 ng/ml, murine IL6 to 2 ng/ml, and murine IL3 to 0.4 ng/ml).

[20] = target: T1, thymidylate synthase (Homo sapiens, UniProt P04818); assay: TS catalytic activity in treated HL60 cells; type: cell-based; settings: 100 nM 5-FU
T1 construct: endogenous in cells; host or cells: HL60
T1 sequence (P04818 2-313 limits assumed): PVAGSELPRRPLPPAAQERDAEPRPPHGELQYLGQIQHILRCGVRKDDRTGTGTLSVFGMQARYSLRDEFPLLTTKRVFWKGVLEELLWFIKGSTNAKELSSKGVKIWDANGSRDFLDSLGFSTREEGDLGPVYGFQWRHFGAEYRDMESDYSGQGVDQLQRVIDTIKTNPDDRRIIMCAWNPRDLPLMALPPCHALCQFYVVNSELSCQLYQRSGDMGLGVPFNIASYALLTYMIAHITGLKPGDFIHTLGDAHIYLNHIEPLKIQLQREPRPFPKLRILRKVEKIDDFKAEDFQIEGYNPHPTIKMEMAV

[21] = system: normal C57/Bl6 mice; assay: Toxicology study, histopathology; type: in vivo, mouse; settings: dosed days 1, 3, 5, 7; sacrificed three days after last treatment
Method: (§4) FIG. 7. […] Mice were treated in the same manner as the in FIG. 6; sacrificed 72 hours after the last dose; and organs were harvested, fixed, paraffin-embedded, sectioned, and stained. Slides were imaged using a Nikon Eclipse 50i light microscope, magnification as indicated. Photographs of tissues were taken using the NIS Elements D3.10 camera and software system. (B) Bone marrow transplant. […] Ly5.1+C57/Bl6 recipient mice were irradiated to 8 gray and injected with donor cells. After three weeks recipients were harvested and degree of femur engraftment by donor cells was determined by staining with Ly5.2 antibody and analyzed by flow cytometry.
(§5) Normal C57/Bl6 mice were treated with identical dose, schedule and route of each drug as in the efficacy studies (i.e. Day 1, 3, 5 and 7). 72 hours after the last dose, animals were sacrificed, bilateral femoral cells harvested and organs fixed in 10% neutral buffered formalin followed by routine tissue processing and sectioning for hematoxylin and eosin staining. Slides were then reviewed by a veterinary pathologist using a Nikon Eclipse 50i light microscope. Photographs of tissues were taken using the NIS Elements D3.10 camera and software system. […] Three weeks later recipient femoral bone marrow was harvested and stained with APC-conjugated anti-Ly5.2 antibody (BD Pharmingen, San Diego, Calif.) and analyzed by flow cytometry. […]

[22] = system: normal murine HSCs; settings: mouse, in vivo
Method: as §4, §5

[23] = system: MFL2 cells (MLL-ENL + Flt3 ITD); assay: cells; settings: Mus musculus, read-out: IC50 MFL2
Method: as §8

[24] = system: MR2 cells (MLL-ENL + NRasG12D); assay: cells; settings: Mus musculus, read-out: IC50 MR2
Method: as §8

[25] = system: M1 cells (MLL-ENL alone); assay: cells; settings: Mus musculus, read-out: IC50 M1
Method: as §8

[26] = system: murine AML cells expressing p210 BCR-ABL; assay: Cytotoxicity assay of murine AML cells expressing p210 BCR-ABL; type: cell-based; settings: 72 hours
Description: (§6) FIG. 1. […] (B) Flow cytometry of Annexin V assay.
(§7) In addition to p53 loss, several other adverse prognostic factors are expressed in the cell lines tested. K562 cells express the fusion gene BCR-ABL that has been implicated in chemotherapy resistance^17 and prognosis in AML^18. THP-1 cells express high levels of MN1^18, shown to confer an adverse prognosis^20-21.

[27] = system: murine AML cells expressing human MN1; assay: Cytotoxicity assay of murine AML cells expressing MN1; type: cell-based; settings: 72 hours
Description: as §6, §7

[28] = days 1, 3, 5 and 7, FdUMP[10] 300 mg/kg

10-mer oligonucleotide of 5-fluorodeoxyuridine [FdUMP[10]]
IC50 [1]: 3.4 nM
IC50 [2]: 5.4 nM
IC50 [3]: 4.1 nM
IC50 [4]: 21.5 nM
IC50 [5]: 4.9 nM
IC50 [6]: 5.5 nM
apoptosis induction in murine AML cell lines [7]: efficiently induced apoptosis
survival ([8]; 300 mg/kg every other day for four doses): significant survival benefit
disease burden (bioluminescence) ([8]; 300 mg/kg on days 1 and 4): reduction in disease burden
survival vs untreated controls ([8]; 300 mg/kg on days 1 and 4): statistically significant survival benefit
survival compared to Ara/Dox treated animals ([9]; Ara-C 125 mg/kg plus doxorubicin 3.75 mg/kg, days 1, 3, 5, 7): no difference in survival
disease burden (bioluminescent imaging) [9, 28]: reduced disease burden
survival compared to controls [9, 28]: improved survival
IC50 [10]: 0.131 nM
IC50 [11]: 0.124 nM
IC50 [12]: 0.124 nM
Annexin V binding in p53-suppressing cells [13]: positive for Annexin V binding
suppression of colony formation, cell lines and primary patient samples [14]: highly effective in suppressing colony formation
S-phase arrest in cells expressing a p53 targeting shRNA ([15]; 8 hours exposure): efficiently arrested in S-phase
accumulation of cells in S-phase ([15]; eight hours exposure): cells accumulated in S-phase
γH2AX foci (DNA DSBs) ([16]; 10 or 100 nM): formation of multiple γH2AX foci
apoptosis by Annexin V and propidium iodide staining ([17]; 10 or 100 nM): a majority of cells were stained positive
trapped Top1 cleavage complexes [18]: Top1 was detected co-migrating with genomic DNA
change in response (viability) on loss of p53 response [19]: no change observed

O=c1[nH]cc(F)c(=O)[nH]1 [5-FU, 5-fluorouracil]
IC50 ([1]; Homo sapiens, HL-60): 5000 nM
IC50 ([2]; Homo sapiens, Jurkat): 7500 nM
IC50 ([3]; Homo sapiens, THP-1): 1200 nM
IC50 ([4]; Homo sapiens, K562): 7000 nM
IC50 ([5]; Homo sapiens, KG-1a): 5300 nM
TS inhibition [20]: did not significantly inhibit TS
deaths on treatment ([9]; 5-FU 121 mg/kg days 1, 3, 5, 7): early deaths
survival compared to controls [9, 28]: no survival benefit over controls
GI-tract histopathology (small and large intestine) [21]: severe villous blunting and fusion with crypt necrosis
bone marrow histopathology [21]: severe pancytopenia
engraftment of femur cells from treated donors in irradiated recipients [22]: only minimal engraftment
accumulation of cells in S-phase ([15]; eight hours, 5-FU at 100 times the FdUMP[10] concentration): essentially no difference in the number of cells in S-phase from control
γH2AX foci (DNA DSBs) ([16]; 1 μM): did not result in the formation of γH2AX foci
apoptosis by Annexin V staining ([17]; 100 nM 5-FU): only minimal annexin V positive cells
IC50 [23]: 292 nM
IC50 [24]: 214 nM

Nc1ccn([C@@H]2O[C@H](CO)[C@@H](O)[C@@H]2O)c(=O)n1 [Cytarabine, cytarabine]
IC50 ([1]; Homo sapiens, HL-60): 145 nM
IC50 ([2]; Homo sapiens, Jurkat): 15.5 nM
IC50 ([3]; Homo sapiens, THP-1): 6700 nM
IC50 ([4]; Homo sapiens, K562): 83.7 nM
IC50 ([5]; Homo sapiens, KG-1a): 196 nM
IC50 ([6]; Homo sapiens, OCI-AML-3): 134 nM
IC50 [23]: 54.4 nM
IC50 [24]: 71.8 nM
IC50 [25]: 46.8 nM

COc1cccc2c1C(=O)c1c(O)c3c(c(O)c1C2=O)C[C@@](O)(C(=O)CO)C[C@@H]3O[C@H]1C[C@H](N)[C@H](O)[C@H](C)O1 [Doxorubicin, doxorubicin]
IC50 ([1]; Homo sapiens, HL-60): 21.7 nM
IC50 ([2]; Homo sapiens, Jurkat): 75.2 nM
IC50 ([3]; Homo sapiens, THP-1): 160 nM
IC50 ([4]; Homo sapiens, K562): 253 nM
IC50 ([5]; Homo sapiens, KG-1a): 1300 nM
fold change of IC50 vs parental leukemia cells, p210 BCR-ABL [26]: 2.95 fold
fold change of IC50 vs parental leukemia cells, MN1 [27]: > 10 fold
IC50 [23]: 24.6 nM
IC50 [24]: 11.4 nM
IC50 [25]: 3.7 nM
change in response (viability) on loss of p53 response [19]: resistance
